Experimental data taken from patent publication US8852556B2, “Animal model for evaluating vasomotor response in vivo” (Janssen Research & Development LLC, priority 2008, dated 2014).

Columns and labels:
[1] = tested on: central ear artery of a rabbit; experiment: Rabbit central ear artery (CEA) vasomotor response, lumen diameter and area by ultrasonic imaging; assay type: in vivo; conditions: for CEA lumen area after norepinephrine and acetylcholine (acetylcholine-induced vasodilation response) / CEA lumen diameter after norepinephrine and acetylcholine (acetylcholine-induced vasodilation response): norepinephrine-preconstricted CEA; for CEA lumen area after norepinephrine and acetylcholine (acetylcholine-induced vasodilation response): vehicle group 0.6 mm^2; for CEA lumen diameter after norepinephrine and acetylcholine (acetylcholine-induced vasodilation response): vehicle group 0.8 mm
Experimental: A group of six rabbits was anesthetized with a mixture of ketamine (50 mg/kg)/xylazine ([…]) administered intramuscularly and placed on a warming pad to maintain body temperature. Rabbit ear pinnae were shaved and depilitated using an over-the-counter depilatory agent. A segment of about 2 cm of the dorsal surface over the CEA on the right ear was coated with warmed ultrasonic gel. The baseline diameter and area of the rabbit's CEA were evaluated using a 23.5 MHz ultrasonic probe (model RMV 708). The images were recorded on a VISUALSONICS VEVO 600 system where the CEA lumen diameters and areas were subsequently measured. The vessel lumen diameter and area were expressed as mean and standard error of the mean (SEM). Norepinephrine and acetylcholine were infused in the contralateral left ear vein through a 27-gauge butterfly needle infusion set connected to an infusion pump. Images were obtained at about 5 minute intervals throughout the infusion periods.
To confirm that acetylcholine-induced vasodilation was NO-dependent, a second group of six rabbits was dosed with either the nitric oxide synthase inhibitor L-NAME (400 μg/mL) mixed in TANG® flavored drinking water (N=3) or TANG® flavored drinking water alone (N=3) for 5 consecutive days. L-NAME, N(G)-nitro-L-arginine-methyl ester, is an arginine derivative that blocks normal nitric oxide-dependent vasodilation. The rabbit CEA were then imaged on day 6. The rabbits were allowed to recover for about one week and then in crossover fashion each group of 3 was given the opposite treatment for 5 days and then imaged on day 6.
(§1) In another group, six adult New Zealand male rabbits (2.5-3.5 kg) were dosed orally (gavage with feeding tube) with the Imwitor/Cremophor/Water vehicle for 4 consecutive days during week 1. The vehicle (10% Imwitor, 20% Cremophor RH40 and 70% water, a light milky compound solution) was given in a total volume of 3 mL/kg per day. On day 4, three hours after oral dosing with vehicle or drug, the rabbits were anesthetized and measured for the vehicle's effect on CEA vessel lumen as described above. After week 1, the rabbits were allowed to recover for 3 days and were then orally dosed with a test compound such as torcetrapib or compound 2 at about 30 mg/kg for 4 consecutive days during week 2. On the 4th day of week 2, rabbit CEA diameter changes in response to test compounds were assessed with infusion of norepinephrine followed by acetylcholine as described above. Rabbits were again allowed to recover for an additional week to allow for drug elimination and were then subjected to daily vehicle dosing and CEA diameter changes in response to test compounds were assessed as described above.
(§2) A series of 5 images (approximately 5 minutes apart) of the CEA were taken and used for baseline lumen diameter (mm) and area (mm^2) measurements, respectively. The adrenergic agonist norepinephrine was slowly infused at about 28 μg per minute and maintained for the duration of the procedure. An infusion of acetylcholine was administered in escalating doses at about 10, 17, 30 and 56 μg/min, each for 15 minutes, in conjunction with the infusion of norepinephrine. The images were collected several times during each infusion period of 15 minutes. After the final acetylcholine and concurrent norepinephrine infusion period, all infusions were terminated and the vessel was allowed to return to its original size. About two mL of blood were sampled from the non-imaged contralateral CEA immediately after the last measurement. All samples were collected into tubes containing EDTA and centrifuged at about 10,000 rpm for 6 minutes. Plasma was kept in −80° C. until analyzed for the concentration of the tested compounds. In addition, blood was taken from a naïve rabbit for generation of a standard drug concentration curve. […]

[2] = Plasma concentration of test compound after oral dosing in rabbits; assay type: in vivo, rabbit; conditions: 4 hours after the last dose; for concentration at 4 h: male, New Zealand, rabbit, plasma, rabbits, oral about 30 mg/kg for 4 days
Experimental: as §1
as §2, with “All samples were collected into tubes containing EDTA and centrifuged at about 10,000 rpm for 6 minutes.” left out, “compounds.” for “compounds. In addition, blood was taken from a naïve rabbit for generation of a standard drug concentration curve.”

systolic blood pressure = conditions: patients receiving torcetrapib; cited from earlier work
[3] = oral about 30 mg/kg for 4 days, compared to vehicle

| CEA lumen area after norepinephrine and acetylcholine (acetylcholine-induced vasodilation response) ([1]; oral dose 30 mg/kg for 4 days) [mm^2] | CEA lumen diameter after norepinephrine and acetylcholine (acetylcholine-induced vasodilation response) ([1]; oral dose 30 mg/kg for 4 days) | concentration at 4 h [2] [nM] | Structure (SMILES) | effect on acetylcholine-induced vasodilation in norepinephrine-preconstricted CEA [1, 3] | other results |
| --- | --- | --- | --- | --- | --- |
| ~0.6 | about 0.8 mm | 2580 ± 670 | O[C@@H](CN1c2cccc(-c3cccc(OC(F)(F)F)c3)c2CC[C@@H]1c1cccc(OC(F)(F)C(F)F)c1)C(F)(F)F [Compound 2, 1,1,1-Trifluoro-3-[2-{3-[(1,1,2,2-tetrafluoroethyl)oxy]phenyl}-5-{3-[(trifluoromethyl)oxy]phenyl}-3,4-dihydroquinolin-1(2H)-yl]propan-2-ol] | does not affect | plasma concentration of compound 2 relative to torcetrapib ([2]; same dose and regimen): approximately 2.5 fold |
|  |  |  | COC(=O)[C@@H](N)CCCNC(=N)N[N+](=O)[O-] [L-NAME, N(G)-nitro-L-arginine-methyl ester] |  | effect of L-NAME on acetylcholine-induced vasodilation in norepinephrine-preconstricted CEA ([1]; L-NAME 400 μg/mL in drinking water for 5 days, imaged day 6): inhibits this acetylcholine-induced vasodilation |
|  |  |  | NC[C@H](O)c1ccc(O)c(O)c1 [norepinephrine] |  | CEA lumen area during norepinephrine infusion ([1]; norepinephrine infused at about 28 μg per minute, baseline about 0.6-0.7 mm^2): about 0.2 mm^2; CEA lumen diameter during norepinephrine infusion ([1]; norepinephrine infused at about 28 μg per minute, baseline about 0.8-0.9 mm): about 0.5 mm |
| 0.2 | about 0.45 mm | ~1010 | CCOC(=O)N1c2ccc(C(F)(F)F)cc2[C@@H](N(Cc2cc(C(F)(F)F)cc(C(F)(F)F)c2)C(=O)OC)C[C@H]1CC [torcetrapib, ethyl (2R,4S)-4-[[3,5-bis(trifluoromethyl)benzyl](methoxycarbonyl)amino]-2-ethyl-6-(trifluoromethyl)-3,4-dihydroquinoline-1(2H)-carboxylate] | inhibits the acetylcholine-induced vasodilation | effect on baseline CEA lumen diameter and area (basal vascular tone) [1, 3]: caused a measurable baseline vasoconstriction; baseline CEA lumen diameter ([1]; oral dose 30 mg/kg for 4 days, prior to norepinephrine or acetylcholine, anesthetized rabbits, vehicle group 0.85 mm): about 0.55 mm; baseline CEA lumen area ([1]; oral dose 30 mg/kg for 4 days, prior to norepinephrine or acetylcholine, vehicle group 0.65 mm^2): about 0.3 mm^2; systolic blood pressure in patients (systolic blood pressure): higher systolic blood pressure |
